Laboratory results as given in patent US10670605B2, “Cysteine reactive probes and uses thereof” (The Scripps Research Institute, priority 2015, dated 2020).
One block for each molecule: values may come before it.

Legend:
Test in all cases: Competitive isoTOP-ABPP, cell lysates;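 for isoTOP-ABPP reactivity profile ratio, O00170 C122: Heavy/light ratio DMSO over fragment-treated so higher means more cysteine engagement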;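 for isoTOP-ABPP reactivity profile ratio, Q99873 C109: Heavy/light ratio DMSO over fragment-treated so higher means more cysteine engagement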
Assay type in all cases: binding
Conditions in all cases: 500 μm, in-vitro_ramos_231
[1] = molecular target: T1, ACAT1 C413 (P24752) (Homo sapiens, UniProt P24752)
T1 sequence (P24752 34-427): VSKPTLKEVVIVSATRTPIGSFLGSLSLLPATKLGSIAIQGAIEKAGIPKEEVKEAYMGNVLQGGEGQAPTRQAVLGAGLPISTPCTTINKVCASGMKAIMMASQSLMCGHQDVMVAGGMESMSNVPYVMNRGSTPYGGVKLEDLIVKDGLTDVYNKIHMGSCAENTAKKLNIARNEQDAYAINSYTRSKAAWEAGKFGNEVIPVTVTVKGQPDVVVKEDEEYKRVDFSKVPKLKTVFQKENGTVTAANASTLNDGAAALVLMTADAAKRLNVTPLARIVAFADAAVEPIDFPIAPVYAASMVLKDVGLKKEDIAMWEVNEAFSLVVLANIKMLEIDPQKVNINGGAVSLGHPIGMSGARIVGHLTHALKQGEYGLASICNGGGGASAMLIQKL

[2] = molecular target: XPO1 C34 (O14980) (Homo sapiens, UniProt O14980)
Method: (§1) TEV digests were pressure loaded onto a 250 μm (inner diameter) fused silica capillary column packed with C18 resin (Aqua 5 μm, Phenomenex). The samples were analyzed by multidimensional liquid chromatography tandem mass spectrometry (MudPIT), using an LTQ-Velos Orbitrap mass spectrometer (Thermo Scientific) coupled to an Agilent 1200-series quaternary pump. The peptides were eluted onto a biphasic column with a 5 μm tip (100 μm fused silica, packed with C18 (10 cm) and bulk strong cation exchange resin (3 cm, SCX, Phenomenex,)) in a 5-step MudPIT experiment, using 0%, 30%, 60%, 90%, and 100% salt bumps of 500 mM aqueous ammonium acetate and using a gradient of 5-100% buffer B in buffer A (buffer A: 95% water, 5% acetonitrile, 0.1% formic acid; buffer B: 5% water, 95% acetonitrile, 0.1% formic acid) as has been described in Weerapana et al. Nat Protoc 2:1414-1425 (2007). Data was collected in data-dependent acquisition mode with dynamic exclusion enabled (20 s, repeat of 2). One full MS (MS1) scan (400-1800 m/z) was followed by 30 MS2 scans (ITMS) of the nth most abundant ions.
(§2) The ratios of heavy/light for each unique peptide (DMSO/compound treated; isoTOP-ABPP ratios, R values) were quantified with in-house CIMAGE software, using default parameters (3 ms s per peak and signal to noise threshold 2.5). Site-specific engagement of electrophilic fragments was assessed by blockade of IA-alkyne probe labeling. […] Ratios for unique peptide entries were calculated for each experiment; overlapping peptides with the same modified cysteine (e.g. different charge states, MudPIT chromatographic steps or tryptic termini) were grouped together and the median ratio was reported as the final ratio (R). The peptide ratios reported by CIMAGE were further filtered to ensure the removal or correction of low quality ratios in each individual dataset. The quality filters applied were the following: removal of half tryptic peptides; for ratios with high standard deviations from the median (90% of the median or above) the lowest ratio was taken instead of the median; removal of peptides with R=20 and only a single ms2 event triggered during the elution of the parent ion; manual annotation of all the peptides with ratios of 20, removing any peptides with low-quality elution profiles that remained after the previous curation steps. Proteome reactivity values for individual fragments were computed as the percentage of the total quantified cysteine-containing peptides with R values≥4 (defined as liganded cysteines) for each replicate experiment and the final proteome reactivity value was calculated as the mean for all replicate experiments for each fragment from both MDA-MB-231 and Ramos cellular proteomes.
(§3) Biological replicates of the same compound and cell-line were averaged if the standard deviation was below 60% of the mean; otherwise the lowest value of the ratio set was taken.

[3] = molecular target: PRMT1 C109 (Q99873) (Homo sapiens, UniProt Q99873);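 for isoTOP-ABPP reactivity profile ratio, Q99873 C109: Heavy/light ratio DMSO over fragment-treated so higher means more cysteine engagement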
Method: as §1, §2, §3

[4] = molecular target: GNB2L1 C182 (P63244) (Homo sapiens, UniProt P63244)
Method: as §1, §2, §3

[5] = molecular target: GSTP1 C48 (P09211) (Homo sapiens, UniProt P09211)
Method: as §1, §2, §3

[6] = molecular target: IDH1 C269 (O75874) (Homo sapiens, UniProt O75874)
Method: as §1, §2, §3

[7] = molecular target: T2, IDH2 C308 (P48735) (Homo sapiens, UniProt P48735)
T2 sequence (P48735 40-452): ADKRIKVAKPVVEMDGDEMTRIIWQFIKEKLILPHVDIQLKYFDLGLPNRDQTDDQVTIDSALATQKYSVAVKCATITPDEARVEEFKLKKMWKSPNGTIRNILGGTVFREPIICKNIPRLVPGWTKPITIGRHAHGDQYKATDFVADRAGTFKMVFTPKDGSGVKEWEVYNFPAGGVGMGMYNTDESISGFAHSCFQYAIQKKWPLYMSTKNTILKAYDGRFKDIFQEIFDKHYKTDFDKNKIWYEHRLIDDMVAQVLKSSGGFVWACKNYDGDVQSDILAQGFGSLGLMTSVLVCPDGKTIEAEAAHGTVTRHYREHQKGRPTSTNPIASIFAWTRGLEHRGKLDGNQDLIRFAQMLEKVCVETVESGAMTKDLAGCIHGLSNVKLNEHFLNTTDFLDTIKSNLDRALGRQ
Method: as §1, §2, §3

[8] = molecular target: T3, ACAT1 C196 (P24752) (Homo sapiens, UniProt P24752)
T3 sequence (P24752 34-427): T1 sequence (P24752 34-427)

[9] = molecular target: T4, ACAT1 C119 (P24752) (Homo sapiens, UniProt P24752)
T4 sequence (P24752 34-427): T1 sequence (P24752 34-427)

[10] = molecular target: T5, UBE2S C118 (Q16763) (Homo sapiens, UniProt Q16763)
T5 sequence (Q16763 1-222): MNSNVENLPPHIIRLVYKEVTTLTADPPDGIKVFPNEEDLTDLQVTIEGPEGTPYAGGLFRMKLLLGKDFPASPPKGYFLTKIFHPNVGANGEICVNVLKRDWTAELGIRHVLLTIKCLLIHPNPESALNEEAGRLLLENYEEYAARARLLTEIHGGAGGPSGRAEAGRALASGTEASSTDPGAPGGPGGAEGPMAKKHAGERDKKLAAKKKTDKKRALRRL
Method: as §1, §2, §3

[11] = molecular target: ZNF217 C286 (O75362) (Homo sapiens, UniProt O75362)
Method: as §1, §2, §3

[12] = molecular target: T6, PDIA6 C190 (Q15084) (Homo sapiens, UniProt Q15084)
T6 sequence (Q15084 20-440): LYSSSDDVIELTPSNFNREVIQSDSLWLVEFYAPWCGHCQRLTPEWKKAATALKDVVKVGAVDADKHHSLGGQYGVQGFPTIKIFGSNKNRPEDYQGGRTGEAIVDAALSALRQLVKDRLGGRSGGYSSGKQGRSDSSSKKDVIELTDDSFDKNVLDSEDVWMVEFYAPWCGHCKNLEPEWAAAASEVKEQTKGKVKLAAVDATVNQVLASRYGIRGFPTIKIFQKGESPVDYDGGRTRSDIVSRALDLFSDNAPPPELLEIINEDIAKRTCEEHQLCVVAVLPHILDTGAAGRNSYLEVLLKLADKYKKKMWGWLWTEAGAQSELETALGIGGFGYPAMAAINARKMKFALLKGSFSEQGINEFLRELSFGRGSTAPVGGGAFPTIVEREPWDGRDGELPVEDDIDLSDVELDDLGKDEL
Method: as §1, §2, §3

[13] = molecular target: T7, PDIA6 C55 (Q15084) (Homo sapiens, UniProt Q15084)
T7 sequence (Q15084 20-440): T6 sequence (Q15084 20-440)
Method: as §1, §2, §3

[14] = molecular target: UBE2L3 C86 (P68036) (Homo sapiens, UniProt P68036)
Method: as §1, §2, §3

[15] = molecular target: SAMHD1 C522 (Q9Y3Z3) (Homo sapiens, UniProt Q9Y3Z3)
Method: as §1, §2, §3

[16] = molecular target: T8, PDE12 C108 (Q6L8Q7) (Homo sapiens, UniProt Q6L8Q7)
T8 sequence (Q6L8Q7 43-609): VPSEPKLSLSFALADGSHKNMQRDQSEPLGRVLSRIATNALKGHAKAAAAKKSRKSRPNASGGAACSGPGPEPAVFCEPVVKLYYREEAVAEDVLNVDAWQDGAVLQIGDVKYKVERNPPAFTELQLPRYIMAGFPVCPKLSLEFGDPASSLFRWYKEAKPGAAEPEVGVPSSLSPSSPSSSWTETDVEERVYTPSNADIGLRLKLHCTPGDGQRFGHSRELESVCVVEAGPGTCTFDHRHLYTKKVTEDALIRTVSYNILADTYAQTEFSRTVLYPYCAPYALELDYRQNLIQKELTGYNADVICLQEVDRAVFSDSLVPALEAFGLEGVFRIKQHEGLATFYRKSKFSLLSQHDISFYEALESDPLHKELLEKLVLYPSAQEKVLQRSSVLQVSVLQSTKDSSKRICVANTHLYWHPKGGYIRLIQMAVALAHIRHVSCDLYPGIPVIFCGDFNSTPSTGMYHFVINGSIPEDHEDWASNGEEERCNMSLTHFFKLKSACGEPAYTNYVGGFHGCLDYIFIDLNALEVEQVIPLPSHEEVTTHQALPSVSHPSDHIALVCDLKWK
Method: as §1, §2, §3

[17] = molecular target: SMARCC2 C145 (Q8TAQ2) (Homo sapiens, UniProt Q8TAQ2)
Method: as §1, §2, §3

[18] = molecular target: T9, ACAT1 C126 (P24752) (Homo sapiens, UniProt P24752)
T9 sequence (P24752 34-427): T1 sequence (P24752 34-427)

[19] = molecular target: LRBA C1704 (P50851) (Homo sapiens, UniProt P50851)
Method: as §1, §2, §3

[20] = molecular target: T10, AIP C122 (O00170) (Homo sapiens, UniProt O00170);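 note: Heavy/light ratio DMSO over fragment-treated so higher means more cysteine engagement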
T10 sequence (O00170 1-330): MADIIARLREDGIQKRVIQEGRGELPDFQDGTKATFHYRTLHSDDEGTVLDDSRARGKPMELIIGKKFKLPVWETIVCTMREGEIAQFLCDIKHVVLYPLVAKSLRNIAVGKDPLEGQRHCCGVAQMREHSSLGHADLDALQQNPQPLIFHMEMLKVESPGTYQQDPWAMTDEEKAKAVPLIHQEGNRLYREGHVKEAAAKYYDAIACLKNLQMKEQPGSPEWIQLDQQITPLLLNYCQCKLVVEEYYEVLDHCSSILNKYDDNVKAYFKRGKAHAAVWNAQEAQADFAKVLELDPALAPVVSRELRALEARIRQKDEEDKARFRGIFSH
Method: as §1, §2, §3

isoTOP-ABPP reactivity ratio, P24752_C413 [1]: 2.7
isoTOP-ABPP reactivity ratio, O14980_C34 [2]: 1.3
isoTOP-ABPP reactivity ratio, Q99873_C109 [3]: 1.0
isoTOP-ABPP reactivity ratio, P63244_C182 [4]: 1.3
isoTOP-ABPP reactivity ratio, P09211_C48 [5]: 1.6
isoTOP-ABPP reactivity ratio, O75874_C269 [6]: 1.7
isoTOP-ABPP reactivity ratio, P48735_C308 [7]: 1.3
isoTOP-ABPP reactivity ratio, P24752_C196 [8]: 1.5
isoTOP-ABPP reactivity ratio, P24752_C119 [9]: 1.2
SMILES: O=C(CCl)Nc1cc(C(=O)O)cc(C(F)(F)F)c1 [compound 36]

isoTOP-ABPP reactivity ratio, P24752_C413 [1]: 2.7
isoTOP-ABPP reactivity ratio, O14980_C34 [2]: 1.3
isoTOP-ABPP reactivity ratio, Q16763_C118 [10]: 1.4
isoTOP-ABPP reactivity ratio, Q99873_C109 [3]: 1.5
isoTOP-ABPP reactivity ratio, P63244_C182 [4]: 1.0
isoTOP-ABPP reactivity ratio, O75362_C286 [11]: 20.0
isoTOP-ABPP reactivity ratio, P09211_C48 [5]: 2.0
isoTOP-ABPP reactivity ratio, Q15084_C190 [12]: 7.0
isoTOP-ABPP reactivity ratio, Q15084_C55 [13]: 3.9
isoTOP-ABPP reactivity ratio, P68036_C86 [14]: 1.9
isoTOP-ABPP reactivity ratio, Q9Y3Z3_C522 [15]: 1.1
isoTOP-ABPP reactivity ratio, Q6L8Q7_C108 [16]: 3.2
isoTOP-ABPP reactivity ratio, Q8TAQ2_C145 [17]: 1.2
isoTOP-ABPP reactivity ratio, P24752_C196 [8]: 3.0
isoTOP-ABPP reactivity ratio, P24752_C119 [9]: 1.7
SMILES: COC(=O)C1Cc2ccccc2CN1C(=O)CCl (stereo not shown) [compound 39]

isoTOP-ABPP reactivity profile ratio, P24752_C126 [18]: 20.0
isoTOP-ABPP reactivity profile ratio, P24752_C413 [1]: 2.6
isoTOP-ABPP reactivity profile ratio, O14980_C34 [2]: 1.9
isoTOP-ABPP reactivity profile ratio, P50851_C1704 [19]: 4.0
isoTOP-ABPP reactivity profile ratio, Q99873_C109 [3]: 2.0
isoTOP-ABPP reactivity profile ratio, O75362_C286 [11]: 1.0
isoTOP-ABPP reactivity profile ratio, O00170_C122 [20]: 4.8
isoTOP-ABPP reactivity profile ratio, Q15084_C190 [12]: 7.7
isoTOP-ABPP reactivity profile ratio, Q15084_C55 [13]: 12.8
isoTOP-ABPP reactivity profile ratio, P68036_C86 [14]: 1.9
isoTOP-ABPP reactivity profile ratio, Q9Y3Z3_C522 [15]: 3.0
isoTOP-ABPP reactivity profile ratio, P24752_C196 [8]: 4.7
isoTOP-ABPP reactivity profile ratio, P24752_C119 [9]: 4.9
SMILES: Cc1ccc(C(F)(F)F)cc1NC(=O)CCl [compound 49]
